Toxic doses and inconclusive results are not listed. Rule for the calls: active = survival T/C of 150% or more; inactive = T/C below 125% in these data.
Columns and labels:
[1] = tested on: BDF1 mice, P388 leukemia ip; experiment: NCI In Vivo Anticancer Drug Screen. Data for tumor model P388 Leukemia (intraperitoneal) in B6D2F1 (BDF1) mice; conditions: endpoint: mean survival time, schedule: Q01DX009 (ip), vehicle: water, higher = longer survival
Summary of the method: (§1)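 T/C = treated-group survival ÷ vehicle-control survival; tumour transplanted into mice before dosing.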

[2] = tested on: BDF1 mice, P388 leukemia ip, median survival T/C; experiment: as above; conditions: endpoint: median survival time, higher = longer survival
Summary of the method: as §1

[3] = dose: 12.5 mg/kg/injection, schedule: Q01DX009 (ip), vehicle: saline
[4] = dose: 25.0 mg/kg/injection, schedule: Q01DX009 (ip), vehicle: saline
[5] = dose: 25.0 mg/kg/injection, schedule: Q04DX003 (ip), vehicle: Klucel (hydroxypropylcellulose) (HPC)
[6] = dose: 50.0 mg/kg/injection, schedule: Q04DX003 (ip), vehicle: Klucel (hydroxypropylcellulose) (HPC)
[7] = dose: 25.0 mg/kg/injection, schedule: Q04DX003 (ip), vehicle: saline

Measured: T/C

COc1cc2cnccc2cc1OCc1ccccc1
inactive: [1]; dose: 6.25 mg/kg/injection 95 % of control | [1]; dose: 12.5 mg/kg/injection 100 % of control | [1]; dose: 25.0 mg/kg/injection 106 % of control | [1]; dose: 50.0 mg/kg/injection 108 % of control | [1]; dose: 100.0 mg/kg/injection 90 % of control | [1]; dose: 200.0 mg/kg/injection 100 % of control

CN(C)c1ccc(-c2nc3c(=O)n(C)c(=O)n(C)c3nc2-c2ccc(N(C)C)cc2)cc1
inactive: [2]; dose: 100.0 mg/kg/injection, schedule: Q04DX002 (ip), vehicle: saline with Tween-80 106 % of control | [2]; dose: 200.0 mg/kg/injection, schedule: Q04DX002 (ip), vehicle: saline with Tween-80 111 % of control | [2]; dose: 400.0 mg/kg/injection, schedule: Q04DX002 (ip), vehicle: saline with Tween-80 116 % of control

CCCCCc1cc(/C=C2/N=C(c3ccc[nH]3)C=C2OC)[nH]c1C
inactive: [2]; dose: 1.0 mg/kg/injection, schedule: Q01DX009 (ip), vehicle: other 118 % of control | [2]; dose: 2.0 mg/kg/injection, schedule: Q01DX009 (ip), vehicle: other 118 % of control

NCCC(O)C(=O)NC1CC(N)C(OC2OC(CO)C(O)C(O)C2N)C(OC2OC(CO)C(O)C2O)C1O (centres undefined)
inactive: [2]; [3] 109 % of control | [2]; [4] 109 % of control | [2]; dose: 50.0 mg/kg/injection, schedule: Q01DX009 (ip), vehicle: saline 100 % of control

CCOC(=O)C(OCC)P(=O)(OCC)OCC (centres undefined)
inactive: [2]; [5] 93 % of control | [2]; [6] 97 % of control | [2]; dose: 100.0 mg/kg/injection, schedule: Q04DX003 (ip), vehicle: Klucel (hydroxypropylcellulose) (HPC) 91 % of control | [2]; dose: 200.0 mg/kg/injection, schedule: Q04DX003 (ip), vehicle: Klucel (hydroxypropylcellulose) (HPC) 90 % of control | [2]; dose: 400.0 mg/kg/injection, schedule: Q04DX003 (ip), vehicle: Klucel (hydroxypropylcellulose) (HPC) 93 % of control

CNC1C(OC2C(OC3C(O)C(O)C(O)C(O)C3O)OC(C)C2(O)CO)OC(CO)C(O)C1O (centres undefined) (tested in a mixture with another compound)
inactive: [2]; dose: 100.0 mg/kg/injection, schedule: Q01DX009 (ip), vehicle: saline 100 % of control | [2]; dose: 200.0 mg/kg/injection, schedule: Q01DX009 (ip), vehicle: saline 100 % of control | [2]; dose: 400.0 mg/kg/injection, schedule: Q01DX009 (ip), vehicle: saline 100 % of control

Cc1c(C)c(CO)c(C)c(C)c1CO
inactive: [2]; dose: 8.0 mg/kg/injection, schedule: Q01DX009 (ip), vehicle: Klucel (hydroxypropylcellulose) (HPC) 96 % of control | [2]; dose: 12.0 mg/kg/injection, schedule: Q01DX009 (ip), vehicle: Klucel (hydroxypropylcellulose) (HPC) 89 % of control | [2]; dose: 12.0 mg/kg/injection, schedule: Q04DX003 (ip), vehicle: Klucel (hydroxypropylcellulose) (HPC) 104 % of control | [2]; dose: 18.0 mg/kg/injection, schedule: Q01DX009 (ip), vehicle: Klucel (hydroxypropylcellulose) (HPC) 96 % of control | [2]; [5] 95 % of control | [2]; [6] 104 % of control

COc1cccc2c1CCC1=C2CC=C2CC3(CCC21C)OCCO3 (centres undefined)
inactive: [2]; dose: 5.0 mg/kg/injection, schedule: Q04DX003 (sc), vehicle: steriod suspending solution 109 % of control | [2]; dose: 10.0 mg/kg/injection, schedule: Q04DX003 (sc), vehicle: steriod suspending solution 104 % of control | [2]; dose: 20.0 mg/kg/injection, schedule: Q04DX003 (sc), vehicle: steriod suspending solution 118 % of control

c1ccc(C[n+]2ccc3ccccc3c2)cc1
inactive: [2]; dose: 6.25 mg/kg/injection, schedule: Q01DX009 (ip), vehicle: saline 100 % of control | [2]; [3] 90 % of control | [2]; dose: 12.5 mg/kg/injection, schedule: Q04DX003 (ip), vehicle: saline 95 % of control | [2]; [4] 118 % of control | [2]; [7] 100 % of control

C1CC[N-]CC1.C1CC[N-]CC1.O=C(CC(=O)C(F)(F)F)C(F)(F)F.O=C(CC(=O)C(F)(F)F)C(F)(F)F.[Ni+2]
inactive: [2]; [7] 104 % of control | [2]; dose: 50.0 mg/kg/injection, schedule: Q04DX003 (ip), vehicle: saline 108 % of control | [2]; dose: 100.0 mg/kg/injection, schedule: Q04DX003 (ip), vehicle: saline 104 % of control
